Experimental data reported in article PMC6437697 (Journal of Medicinal Chemistry, 2019).

Key:
Experiment in all cases: KINOMEscan
Assay type in all cases: binding
Conditions in all cases: read-out: % control activity remaining
[1] = biological target: T1, ULK2 (Homo sapiens, UniProt Q8IYT8)
T1 construct: purchased Eurofins DiscoverX KINOMEscan
T1 sequence (Q8IYT8 1-1036): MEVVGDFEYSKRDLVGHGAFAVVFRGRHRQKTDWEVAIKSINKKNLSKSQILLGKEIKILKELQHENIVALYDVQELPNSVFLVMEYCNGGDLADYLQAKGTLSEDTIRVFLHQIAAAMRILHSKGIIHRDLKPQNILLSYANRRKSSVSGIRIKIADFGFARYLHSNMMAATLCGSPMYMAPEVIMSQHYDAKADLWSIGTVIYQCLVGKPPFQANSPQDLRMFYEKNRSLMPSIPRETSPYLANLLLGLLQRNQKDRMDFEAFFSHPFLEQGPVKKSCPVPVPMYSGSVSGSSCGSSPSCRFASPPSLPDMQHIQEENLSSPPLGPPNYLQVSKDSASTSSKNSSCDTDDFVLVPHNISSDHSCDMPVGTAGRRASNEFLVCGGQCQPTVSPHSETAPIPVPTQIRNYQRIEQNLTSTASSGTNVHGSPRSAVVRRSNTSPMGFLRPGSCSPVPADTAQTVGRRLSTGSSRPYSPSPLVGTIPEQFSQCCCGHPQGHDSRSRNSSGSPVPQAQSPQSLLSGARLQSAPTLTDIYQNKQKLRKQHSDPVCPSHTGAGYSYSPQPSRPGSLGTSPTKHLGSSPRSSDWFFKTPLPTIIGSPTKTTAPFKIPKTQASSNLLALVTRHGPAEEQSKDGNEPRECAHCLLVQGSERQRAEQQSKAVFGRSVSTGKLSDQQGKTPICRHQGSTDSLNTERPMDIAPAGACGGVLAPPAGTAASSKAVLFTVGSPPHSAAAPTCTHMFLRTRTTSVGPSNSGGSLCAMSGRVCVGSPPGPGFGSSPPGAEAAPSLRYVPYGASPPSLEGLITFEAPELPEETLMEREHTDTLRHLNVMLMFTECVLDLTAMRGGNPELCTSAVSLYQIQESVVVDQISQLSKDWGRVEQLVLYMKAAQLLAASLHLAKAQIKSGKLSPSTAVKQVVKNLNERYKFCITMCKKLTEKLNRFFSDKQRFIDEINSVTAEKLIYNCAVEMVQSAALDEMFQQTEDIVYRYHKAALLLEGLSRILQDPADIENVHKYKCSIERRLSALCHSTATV

[2] = biological target: T2, TRKA (Homo sapiens, UniProt P04629)
T2 construct: purchased Eurofins DiscoverX KINOMEscan

[3] = biological target: T3, p38-beta (Homo sapiens, UniProt Q15759)
T3 construct: purchased Eurofins DiscoverX KINOMEscan

[4] = biological target: T4, MET(Y1235D) (Homo sapiens, UniProt P08581, Y1235D)
T4 construct: purchased Eurofins DiscoverX KINOMEscan

[5] = biological target: T5, ROCK1 (Homo sapiens, UniProt Q13464)
T5 construct: purchased Eurofins DiscoverX KINOMEscan

[6] = biological target: T6, MINK (Homo sapiens, UniProt Q8N4C8)
T6 construct: purchased Eurofins DiscoverX KINOMEscan

[7] = biological target: T7, NEK1 (Homo sapiens, UniProt Q96PY6)
T7 construct: purchased Eurofins DiscoverX KINOMEscan
T7 sequence (Q96PY6 1-1258): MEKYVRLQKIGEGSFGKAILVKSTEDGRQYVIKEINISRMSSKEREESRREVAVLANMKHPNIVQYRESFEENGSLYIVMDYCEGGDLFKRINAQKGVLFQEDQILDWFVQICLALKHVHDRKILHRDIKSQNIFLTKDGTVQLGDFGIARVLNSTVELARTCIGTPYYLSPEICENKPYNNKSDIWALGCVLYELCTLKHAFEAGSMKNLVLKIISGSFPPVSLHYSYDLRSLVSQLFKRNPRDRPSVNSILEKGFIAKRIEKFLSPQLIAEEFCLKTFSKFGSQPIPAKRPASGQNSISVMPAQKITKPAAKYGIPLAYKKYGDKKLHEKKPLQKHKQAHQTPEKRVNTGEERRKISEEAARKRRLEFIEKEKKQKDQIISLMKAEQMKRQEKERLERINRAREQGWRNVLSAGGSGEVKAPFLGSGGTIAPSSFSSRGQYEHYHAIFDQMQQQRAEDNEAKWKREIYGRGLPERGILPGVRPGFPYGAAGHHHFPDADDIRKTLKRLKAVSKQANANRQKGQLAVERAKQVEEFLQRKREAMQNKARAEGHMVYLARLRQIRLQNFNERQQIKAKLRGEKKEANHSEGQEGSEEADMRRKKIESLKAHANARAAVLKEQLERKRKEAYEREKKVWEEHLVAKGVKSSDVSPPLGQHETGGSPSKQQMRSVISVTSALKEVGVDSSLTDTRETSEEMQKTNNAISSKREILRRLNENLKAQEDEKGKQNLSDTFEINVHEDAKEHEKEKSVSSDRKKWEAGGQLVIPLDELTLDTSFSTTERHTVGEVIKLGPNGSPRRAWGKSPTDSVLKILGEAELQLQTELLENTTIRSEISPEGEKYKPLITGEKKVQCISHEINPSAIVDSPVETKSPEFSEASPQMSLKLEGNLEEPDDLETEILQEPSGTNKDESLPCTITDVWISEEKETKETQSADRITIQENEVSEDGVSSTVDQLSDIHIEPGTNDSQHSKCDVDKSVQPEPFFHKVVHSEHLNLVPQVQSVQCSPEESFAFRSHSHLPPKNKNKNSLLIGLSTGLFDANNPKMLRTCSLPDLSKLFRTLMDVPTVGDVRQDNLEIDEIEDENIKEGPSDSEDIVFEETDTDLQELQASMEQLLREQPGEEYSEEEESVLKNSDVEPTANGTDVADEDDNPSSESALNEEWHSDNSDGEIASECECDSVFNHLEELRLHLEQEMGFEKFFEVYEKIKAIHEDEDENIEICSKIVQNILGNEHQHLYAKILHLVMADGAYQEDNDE

[8] = biological target: T8, MAP4K5 (Homo sapiens, UniProt Q9Y4K4)
T8 construct: purchased Eurofins DiscoverX KINOMEscan
T8 sequence (Q9Y4K4 whole entry): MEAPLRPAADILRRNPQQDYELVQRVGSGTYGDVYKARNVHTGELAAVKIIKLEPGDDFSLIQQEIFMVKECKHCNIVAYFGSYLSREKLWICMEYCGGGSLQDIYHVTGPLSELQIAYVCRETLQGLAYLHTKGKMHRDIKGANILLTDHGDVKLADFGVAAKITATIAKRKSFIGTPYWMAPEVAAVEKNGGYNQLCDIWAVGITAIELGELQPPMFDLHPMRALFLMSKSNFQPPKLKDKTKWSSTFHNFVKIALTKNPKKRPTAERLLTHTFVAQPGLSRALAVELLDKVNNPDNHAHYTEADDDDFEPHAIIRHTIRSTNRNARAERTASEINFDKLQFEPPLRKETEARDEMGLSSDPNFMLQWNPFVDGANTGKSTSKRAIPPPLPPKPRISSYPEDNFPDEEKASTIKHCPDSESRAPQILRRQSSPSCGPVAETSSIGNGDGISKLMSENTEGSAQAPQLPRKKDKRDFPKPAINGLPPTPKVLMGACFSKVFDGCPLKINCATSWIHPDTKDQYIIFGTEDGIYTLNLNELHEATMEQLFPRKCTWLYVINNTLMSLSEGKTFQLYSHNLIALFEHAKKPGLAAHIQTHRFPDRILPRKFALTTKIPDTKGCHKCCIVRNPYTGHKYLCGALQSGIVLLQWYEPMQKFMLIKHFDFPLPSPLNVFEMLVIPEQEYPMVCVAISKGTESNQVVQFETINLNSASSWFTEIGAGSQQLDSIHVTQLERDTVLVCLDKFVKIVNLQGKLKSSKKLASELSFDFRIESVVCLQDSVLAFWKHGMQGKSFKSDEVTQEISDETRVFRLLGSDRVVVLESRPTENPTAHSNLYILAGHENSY

T3 sequence (Q15759 whole entry): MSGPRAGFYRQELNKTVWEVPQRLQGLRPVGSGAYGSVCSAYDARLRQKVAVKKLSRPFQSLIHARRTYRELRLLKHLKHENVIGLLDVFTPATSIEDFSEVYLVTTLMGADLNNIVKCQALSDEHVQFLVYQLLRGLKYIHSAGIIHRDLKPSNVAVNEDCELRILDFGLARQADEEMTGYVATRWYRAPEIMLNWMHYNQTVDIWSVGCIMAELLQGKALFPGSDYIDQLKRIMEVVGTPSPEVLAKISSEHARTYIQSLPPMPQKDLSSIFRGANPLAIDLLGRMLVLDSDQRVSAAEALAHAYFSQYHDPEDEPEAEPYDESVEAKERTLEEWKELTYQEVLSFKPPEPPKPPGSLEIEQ
T2 sequence (P04629 33-796): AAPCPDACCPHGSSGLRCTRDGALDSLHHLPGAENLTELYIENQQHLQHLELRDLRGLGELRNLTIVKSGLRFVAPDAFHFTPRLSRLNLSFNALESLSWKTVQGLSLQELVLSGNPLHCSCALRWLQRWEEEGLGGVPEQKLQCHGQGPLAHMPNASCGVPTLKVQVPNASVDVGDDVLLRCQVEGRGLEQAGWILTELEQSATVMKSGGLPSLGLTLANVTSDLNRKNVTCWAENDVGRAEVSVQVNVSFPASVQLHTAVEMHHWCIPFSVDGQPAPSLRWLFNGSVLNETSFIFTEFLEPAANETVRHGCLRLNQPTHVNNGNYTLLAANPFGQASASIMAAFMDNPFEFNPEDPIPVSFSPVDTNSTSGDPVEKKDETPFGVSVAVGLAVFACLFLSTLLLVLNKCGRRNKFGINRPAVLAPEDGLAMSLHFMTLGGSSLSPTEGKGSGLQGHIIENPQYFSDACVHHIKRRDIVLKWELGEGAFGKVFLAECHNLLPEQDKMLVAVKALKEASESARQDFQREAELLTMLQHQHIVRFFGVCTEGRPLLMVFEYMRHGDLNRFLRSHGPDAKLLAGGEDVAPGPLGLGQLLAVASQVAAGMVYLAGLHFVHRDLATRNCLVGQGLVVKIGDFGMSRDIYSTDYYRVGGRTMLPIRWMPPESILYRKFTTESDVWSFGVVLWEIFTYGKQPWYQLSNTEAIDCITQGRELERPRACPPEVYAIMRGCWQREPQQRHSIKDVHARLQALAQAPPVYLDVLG
T4 sequence (P08581 25-1390 Y1235D): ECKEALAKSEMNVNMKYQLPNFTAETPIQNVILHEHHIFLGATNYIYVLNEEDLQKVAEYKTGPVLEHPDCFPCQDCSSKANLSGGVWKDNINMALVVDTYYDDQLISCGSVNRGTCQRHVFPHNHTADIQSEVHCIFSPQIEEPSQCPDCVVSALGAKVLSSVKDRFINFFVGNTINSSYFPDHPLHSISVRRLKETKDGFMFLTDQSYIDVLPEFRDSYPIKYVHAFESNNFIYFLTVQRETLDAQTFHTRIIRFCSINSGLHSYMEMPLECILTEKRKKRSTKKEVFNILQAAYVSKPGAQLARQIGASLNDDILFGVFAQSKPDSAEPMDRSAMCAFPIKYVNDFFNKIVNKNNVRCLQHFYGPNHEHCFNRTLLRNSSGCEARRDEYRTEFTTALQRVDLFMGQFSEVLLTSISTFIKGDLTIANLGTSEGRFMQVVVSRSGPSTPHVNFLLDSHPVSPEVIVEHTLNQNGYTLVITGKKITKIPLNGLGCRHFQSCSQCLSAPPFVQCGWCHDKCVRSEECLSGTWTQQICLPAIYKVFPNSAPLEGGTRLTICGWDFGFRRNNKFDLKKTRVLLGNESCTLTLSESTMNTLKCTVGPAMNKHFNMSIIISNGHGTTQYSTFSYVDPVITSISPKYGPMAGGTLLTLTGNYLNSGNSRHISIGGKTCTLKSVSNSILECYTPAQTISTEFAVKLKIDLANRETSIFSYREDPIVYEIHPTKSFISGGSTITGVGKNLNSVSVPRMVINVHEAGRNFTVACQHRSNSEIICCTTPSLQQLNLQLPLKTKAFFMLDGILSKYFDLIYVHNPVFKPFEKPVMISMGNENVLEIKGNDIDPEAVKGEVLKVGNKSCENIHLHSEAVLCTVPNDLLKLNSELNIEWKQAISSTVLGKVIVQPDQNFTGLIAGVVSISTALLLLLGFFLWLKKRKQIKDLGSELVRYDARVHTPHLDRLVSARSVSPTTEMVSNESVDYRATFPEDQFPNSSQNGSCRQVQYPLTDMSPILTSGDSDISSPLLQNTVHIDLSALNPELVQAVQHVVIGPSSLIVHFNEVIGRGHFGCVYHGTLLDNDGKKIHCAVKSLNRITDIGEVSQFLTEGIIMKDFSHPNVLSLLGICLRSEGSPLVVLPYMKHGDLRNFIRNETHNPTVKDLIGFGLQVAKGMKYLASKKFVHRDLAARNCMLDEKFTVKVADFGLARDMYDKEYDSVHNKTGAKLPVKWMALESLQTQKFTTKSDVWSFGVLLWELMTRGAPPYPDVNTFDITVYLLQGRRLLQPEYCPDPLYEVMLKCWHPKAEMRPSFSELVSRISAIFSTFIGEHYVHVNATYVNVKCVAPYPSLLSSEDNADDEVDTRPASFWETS
T6 sequence (Q8N4C8 whole entry): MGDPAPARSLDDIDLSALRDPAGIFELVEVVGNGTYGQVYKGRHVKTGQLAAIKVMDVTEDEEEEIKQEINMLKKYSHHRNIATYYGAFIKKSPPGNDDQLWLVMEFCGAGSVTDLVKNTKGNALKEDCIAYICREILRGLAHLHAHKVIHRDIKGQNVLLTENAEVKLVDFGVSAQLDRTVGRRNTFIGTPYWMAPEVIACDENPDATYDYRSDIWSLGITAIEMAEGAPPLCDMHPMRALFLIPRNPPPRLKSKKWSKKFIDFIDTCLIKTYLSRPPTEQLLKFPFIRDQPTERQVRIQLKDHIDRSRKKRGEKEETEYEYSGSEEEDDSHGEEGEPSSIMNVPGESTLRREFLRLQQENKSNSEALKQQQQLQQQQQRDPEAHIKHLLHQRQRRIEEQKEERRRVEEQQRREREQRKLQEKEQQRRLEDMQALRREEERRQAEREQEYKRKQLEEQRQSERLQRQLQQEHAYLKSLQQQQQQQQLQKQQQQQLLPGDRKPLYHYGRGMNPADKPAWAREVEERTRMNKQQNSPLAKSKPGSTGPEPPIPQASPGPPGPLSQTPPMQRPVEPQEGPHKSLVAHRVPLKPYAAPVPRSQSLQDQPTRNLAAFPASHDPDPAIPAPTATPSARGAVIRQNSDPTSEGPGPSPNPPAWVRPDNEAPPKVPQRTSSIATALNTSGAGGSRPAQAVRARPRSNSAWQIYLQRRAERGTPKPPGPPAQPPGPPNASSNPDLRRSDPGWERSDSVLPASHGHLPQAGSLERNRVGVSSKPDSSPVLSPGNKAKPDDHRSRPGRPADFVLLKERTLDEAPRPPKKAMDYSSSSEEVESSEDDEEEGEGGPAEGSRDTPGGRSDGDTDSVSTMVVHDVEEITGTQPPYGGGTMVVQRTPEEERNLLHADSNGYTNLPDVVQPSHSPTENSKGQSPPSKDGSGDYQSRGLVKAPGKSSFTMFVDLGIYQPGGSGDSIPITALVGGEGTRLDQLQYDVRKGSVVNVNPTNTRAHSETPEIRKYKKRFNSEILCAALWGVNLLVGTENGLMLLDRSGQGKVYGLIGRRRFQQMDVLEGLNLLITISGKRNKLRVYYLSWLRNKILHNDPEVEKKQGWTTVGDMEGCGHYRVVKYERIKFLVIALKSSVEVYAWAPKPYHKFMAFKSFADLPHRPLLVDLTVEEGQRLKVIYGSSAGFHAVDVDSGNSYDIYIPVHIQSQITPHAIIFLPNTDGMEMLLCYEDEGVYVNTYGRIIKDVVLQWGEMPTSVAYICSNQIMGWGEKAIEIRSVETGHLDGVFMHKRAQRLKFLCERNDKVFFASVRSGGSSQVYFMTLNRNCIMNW

Structure (SMILES) | remaining binding at 1 µM [1] | remaining binding at 1 µM [2] | remaining binding at 1 µM [3] | remaining binding at 1 µM [4] | remaining binding at 1 µM [5] | remaining binding at 1 µM [6] | remaining binding at 1 µM [7] | remaining binding at 1 µM [8]
Clc1cc(NCC2CC2)c2ncc(-c3ccc4[nH]ncc4c3)n2n1 [compound 2, 6-Chloro-N-(cyclopropylmethyl)-3-(1H-indazol-5-yl)imidazo[1,2-b]pyridazin-8-amine] | 98% | 89% | 94% | 100% | 36% | 72% | 84% | 98%
O=C(CN1CCOCC1)N[C@H]1CC[C@H](Nc2cc(Cl)nn3c(-c4ccc5[nH]ncc5c4)cnc23)CC1 [compound 26] | 94% | 19% | 94% | 97% | 22% | 57% | 92% | 87%
CN1CCC(CNc2cc(Cl)nn3c(-c4cc5nc(Nc6ccccc6)[nH]c5cc4F)cnc23)CC1 [compound 31, 6-Chloro-3-(6-fluoro-2-(phenylamino)-1H-benzo[d]imidazol-5-yl)-N-((1-methylpiperidin-4-yl)methyl)imidazo[1,2-b]pyridazin-8-amine] | 83% | 96% | 99% | 99% | 76% | 87% | 96% | 100%
